Laboratory results as given in patent publication US20240180931A1, “CANNABINOIDS AND USES THEREOF IN TREATMENT OF A DISEASE” (TECHNION RESEARCH & DEVELOPMENT FOUNDATION LIMITED, priority 2021, published 2024).

Experiments:
[1] = tested on: pCREB^S133 / ATF1 / PCNA in HaCaT cells; test: western blot analysis of treated HaCaT cells (pCREB, ATF1, PCNA); format: cell-based, human; conditions: for levels of active pCREB^S133 or ATF1 (western blot): HaCaT treated cells (FIG. 11B)
Procedure: (§1) In order to examine the underlying mechanism, the inventors next examined whether increased repair and proliferation is facilitated via the CAMP response element binding protein (CREB). First, the inventors utilized human keratinocyte cells (HaCaT). Cells were starved (serum-free) for 16 hours and then administered with Dimethyl sulfoxide (DMSO; carrier/solvent control), White Widow (WW) extract or cannabigerol (CBG). Next, the inventors performed immunofluorescence for activated phosphorylated CREB using specific antibodies.
In order to verify these findings, the inventors next performed western blot analysis of treated cells (as outlined above).

[2] = tested on: NF-kappa-B (p65; NF-κB) transcription factor; test: TNF-α-induced NF-κB (p65) translocation in HaCaT keratinocytes, immunofluorescence; format: cell-based, Human; conditions: 30 minutes; for translocation of NF-kappa-B (p65) to the nucleus: serum starved 16 hours, extract 1 μg/ml, cannabinoids 10 μM (FIG. 4A)
Procedure: In order to examine the underlying mechanism, the inventors next examined whether improving health of the epidermis in psoriasis is dependent upon the NF-kappa-B (p65; NF-κB) transcription factor. NF-κB transcription factor is known to be active in psoriasis and high expression of its target genes leads to enhanced proliferation and inflammation (Goldminz et al., 2012). Human keratinocyte cells (HaCaT) were utilized. Cells were serum starved for 16 hours and then either non-treated (NTC) or administered with TNF-α along with either DMSO (Ctrl), Infinity (INF) extract, CBN, CBG, or THC at a concentration according to Table 2. Immunofluorescence was next performed for activated NF-κB using specific antibodies. The present data clearly indicate that, in response to TNF-α, the NF-κB (p65) transcription factor translocated to the nucleus.

[3] = tested on: 1 cm^2 whole-thickness dorsal wounds; test: whole-thickness dorsal wound healing and regeneration in mice; format: in vivo; conditions: for wound healing by single cannabinoids, compared with WW strain: IP every second day, CBG 0.11 mg/kg, THC 3.7 mg/kg (FIGS. 10B-10C)
Procedure: To this end, 1 cm^2 whole-thickness dorsal wounds were inflicted on male or female 8-week-old wildtype (WT; C57BL/6J background) mice (n=at least 3 mice per group) and the wounded mice were treated with 5 mg/kg of each strain via intraperitoneal (IP) injection every two days (FIG. 9D). Dorsal wound coverage was measured by determining wound size (%) relative to the initial wound size.
Next, the inventors sought to understand whether any single cannabinoid component of the WW strain could potentiate the WW-induced phenotypes (FIG. 10A). For this, male and female mice (8-weeks-old) on WT (wild type; C57BL/6J) background were administered IP injections of cannabigerol (CBG; 0.11 mg/kg), tetrahydrocannabinol (THC; 3.7 mg/kg), cannabinol (CBN; 0.155 mg/kg), or cannabichromene (CBC; 0.0375 mg/kg), and dorsal wound was inflicted (n=at least 3 mice per group). Cannabinoid solutions are prepared by dissolving pure cannabinoids in 100% ethanol (EtOH) to a stock concentration of 100 mg/ml. Further dilution was achieved by preparing a 1:1:18 working solution of 100% EtOH:Cremophor:1×PBS. 100 μl was administered via IP injection to each mouse every second day starting from the day of wound infliction.

[4] = tested on: cAMP response element binding protein (CREB); test: CREB phosphorylation in HaCaT keratinocytes, immunofluorescence; format: cell-based, human; conditions: serum-free 16 hours, 30 minutes post-stimulation, WW 1 μg/ml, CBG 10 μM (FIG. 11A)
Procedure: as §1

CREB = CREB phosphorylation in healing wounds in vivo, immunofluorescence; set-up: species or system mice
Text: Thereafter, the inventors examined whether CREB is phosphorylated in healing wounds. The inventors performed full-thickness excisional wounds (as described above) and harvested wounds at 8 days post wound infliction.

[5] = tested on: 5%-Imiquimod (IMQ) model of psoriasis; test: topical 5%-Imiquimod (IMQ) model of psoriasis in mice; format: in vivo
Procedure: The therapeutic potentials of five different cannabis strains were determined (namely, Infinity (INF), White Widow (WW), Cannatonic (CNT), Dance Hall (DH), and Green Crack (GC)), utilizing an in vivo setting of skin pathology. For this aim, the topical 5%-Imiquimod (IMQ) model of psoriasis (FIGS. 1A-1B) was employed. In this model, 62.5 mg of IMQ cream is applied topically on depilated dorsal skins of mice (Fits et al., 2009) every second day concurrent with administration of extracts. Extracts were administered at 5 mg/kg dose via intraperitoneal (i.p.) injection.
Examining the cannabinoid constituents of INF, the inventors next applied IMQ and treated mice with either control (vehicle only), the 5 mg/kg INF extract, 1.6 mg/kg CBN, 0.1 mg/kg CBG, 3.7 mg/kg THC, or 0.04 mg/kg CBC (FIG. 3A).
Further, the recruitment of CD3^+ T cells to the epidermis was examined in 5% IMQ-treated skins.

[6] = tested on: tail skin sebaceous glands (SGs); test: DBL-induced acne in mouse tail skin in vivo; set-up: species or system mice; conditions: DBL intradermal at tail base every second day for 10 days, treated from day 4; 5 mg/kg INF extract, 1.6 mg/kg CBN
[7] = tested on: NF-kappa-B (p65; NF-κB) signaling; test: TNF-α-induced NF-κB (p65) translocation in Blimp1+ sebocytes, immunofluorescence; format: cell-based, mouse; conditions: serum starved 16 hours, TNF-α (FIGS. 8A-8B)
Procedure: In order to examine the underlying mechanism, the inventors assessed the effects of INF, THC and CBN in acne and whether it is mediated through downregulation of NF-kappa-B (p65; NF-κB) signaling. NFκB transcription factor is known to be active in acne and high expression of its target genes leads to enhanced proliferation and inflammation (Kang et al., 2005). The inventors utilized mouse primary sebaceous gland progenitors (Blimp1^+ sebocytes). Cells were serum starved for 16 hours and then either non-treated (NTC) or administered with TNF-α along with either DMSO (Ctrl), Infinity (INF) extract, CBN or THC (FIGS. 8A-8B). The inventors next performed immunofluorescence for activated NF-κB using specific antibodies. The present data clearly indicate that in response to TNF-α the NF-κB (p65) transcription factor translocates to the nucleus in Blimp1^+ sebocytes.

[8] = IMQ-treated mice, 5 mg/kg INF extract, 3.7 mg/kg THC (FIGS. 3B-3D)

| Structure (SMILES) | levels of active pCREB^S133 or ATF1 (western blot) [1] | translocation of NF-kappa-B (p65) to the nucleus [2] | epidermal invaginations in treated skins, 8 days post wounding ([3]; CBG 0.11 mg/kg IP every second day (FIG. 10D)) | regenerated hair follicles in wounds, 18 days ([3]; CBG 0.11 mg/kg IP every second day (FIGS. 10E-10F)) | wound healing by single cannabinoids, compared with WW strain [3] | CREB phosphorylation (pCREB^S133) and translocation to the nucleus [4] | proliferation as indicated by the proliferation marker PCNA ([1]; HaCaT treated cells (FIG. 11C)) | localisation of activated p-CREB in treated wounds (CREB; CBG-treated wounds (FIG. 11F)) | activated pCREB^S133 in the epidermis adjacent to the wound (CREB; full-thickness excisional wounds, 8 days post wound infliction (FIGS. 11D-11E)) | recruitment of CD3+ T cells to the epidermis ([5]; 5% IMQ-treated skins, harvested 8 days post administration (FIG. 5)) | inhibition of NF-κB (p65) translocation, comparison between treatments (% nuclear NF-κB positive cells) ([2]; 10 μM (FIG. 4B)) | SG cell hyperproliferation [6] | sebum over-production [6] | translocation of NFκB (p65) to the nucleus [7] | decreasing abnormal levels of proliferation [5, 8] | prevention of overgrowth of the epidermis [5, 8] |
| --- | --- | --- | --- | --- | --- | --- | --- | --- | --- | --- | --- | --- | --- | --- | --- | --- |
| CCCCCc1cc(O)c2c(c1)OC(C)(CCC=C(C)C)C=C2 (centres unmarked) [CBC, cannabichromene] | only minimal (if any) effect | – | – | – | – | – | – | – | – | – | – | – | – | – | – | – |
| CCCCCc1cc(O)c(C/C=C(\C)CCC=C(C)C)c(O)c1 [CBG, cannabigerol] | high phosphorylation of CREB and ATF | had no effect | considerably more epidermal invaginations | striking number of regenerated hair follicles | healed comparably to the WW strain | highly phosphorylated | increased proliferation | co-expressed with proliferative markers | dramatic increase | – | – | – | – | – | – | – |
| CCCCCc1cc(O)c2c(c1)OC(C)(C)c1ccc(C)cc1-2 [CBN, cannabinol] | only minimal (if any) effect | strongly inhibited | – | – | – | – | – | – | – | substantially reduced | best results of inhibition | prevented | prevented | strongly inhibited | – | – |
| CCCCCc1cc(O)c2c(c1)OC(C)(C)[C@@H]1CCC(C)=C[C@@H]21 [THC, tetrahydrocannabinol] | only minimal (if any) effect | strongly inhibited | – | – | to some extent | – | – | – | – | – | – | – | – | strongly inhibited | comparable | comparable |
